Patent US7960339B2, “Antimicrobial peptides” (Österreichische Akademie der Wissenschaften, priority 2006, dated 2011)
Peptide text beside a SMILES is read from it. * marks the point of attachment. Dicyclohexylacetyl = O=C(C(C1CCCCC1)C1CCCCC1)*; Butanoyl(2,2-Me2) = CCC(C)(C)C(=O)*; Octanoyl(6-Me) = CCC(C)CCCCC(=O)*; Octanoyl = CCCCCCCC(=O)*; X1 = CCCCC(CC)C(=O)*

Each compound was assayed on C. neoformans ATCC 32045. Settings: ATCC 32045, 72 h.
Type: cell-based
Description: C. neoformans ATCC 32045 cultures were maintained on yeast medium (YM; Difco Laboratories, Detroit, Mich.) agar plates at 4° C. Prior to the assay, the cultures were grown on agar plates and incubated for 72 hrs at 26° C. Two colonies of these newly grown fungal cultures were then inoculated in 5 ml of 2×YM broth, vortexed, and diluted 10-fold in 2×YM broth, for an approximate final assay concentration of 1×105 to 5×10^5 CFU/ml. In 96-well tissue culture plates, fungal suspensions in 2×YM broth were added to the peptides dispensed at concentrations ranging from 1 mg/ml to 1 μg/ml derived from serial twofold dilutions in sterile water. The plates were then incubated for 72 hrs at 26° C. The relative percent growth of the fungi found for each test sample was determined by the optical density at 620 nm (OD620) by using a Titertek Multiskan Plus apparatus. […] The IC50 were calculated by using a sigmoidal curve-fitting software program (Graphpad Prism; ISI Software, San Diego, Calif.).

average IC50 [mg/L]	average MIC [mg/L]	SMILES
12	32	CC[C@H](C)[C@H](NC(=O)[C@H](CCCNC(=N)N)NC(=O)[C@H](CCCNC(=N)N)NC(=O)[C@H](Cc1c[nH]c2ccccc12)NC(=O)[C@@H]1CCCN1)C(=O)N[C@@H](CCCNC(=N)N)C(=O)N[C@@H](CCCNC(=N)N)C(N)=O [VS1-35, PWRRIRR-NH2] (H-PWRRIRR-NH2; N-terminus assumed)
11	62	CC[C@H](C)[C@H](NC(=O)[C@H](CCCCN)NC(=O)[C@H](CCCNC(=N)N)NC(=O)[C@H](CCCNC(=N)N)NC(=O)[C@H](Cc1c[nH]c2ccccc12)NC(=O)[C@@H]1CCCN1)C(=O)N[C@@H](CCCNC(=N)N)C(=O)N[C@@H](CCCNC(=N)N)C(N)=O [VS1-36, PWRRKIRR-NH2] (H-PWRRKIRR-NH2; N-terminus assumed)
9	32	CC[C@H](C)[C@H](NC(=O)[C@H](CCCNC(=N)N)NC(=O)[C@@H](NC(=O)[C@H](CCCNC(=N)N)NC(=O)[C@H](CCCNC(=N)N)NC(=O)[C@H](CCCNC(=N)N)NC(=O)[C@H](Cc1c[nH]c2ccccc12)NC(=O)[C@H](Cc1ccccc1)NC(=O)[C@@H]1CCCN1)[C@@H](C)CC)C(=O)N[C@@H](CCCNC(=N)N)C(=O)N[C@@H](CCCNC(=N)N)C(N)=O [VS1-37, PFWRRRIRIRR-NH2] (H-PFWRRRIRIRR-NH2; N-terminus assumed)
6	32	N=C(N)NCCC[C@H](NC(=O)[C@H](CCCNC(=N)N)NC(=O)[C@H](Cc1c[nH]c2ccccc12)NC(=O)[C@H](Cc1ccccc1)NC(=O)[C@H](Cc1c[nH]c2ccccc12)NC(=O)[C@H](CCCNC(=N)N)NC(=O)[C@@H](N)CCCNC(=N)N)C(=O)O [VS1-39, RRWFWRR-OH] (H-RRWFWRR-OH; N-terminus assumed)
2	8	CCCCCCCC(=O)N[C@@H](Cc1ccccc1)C(=O)N[C@@H](Cc1c[nH]c2ccccc12)C(=O)N[C@@H](CCC(N)=O)C(=O)N[C@@H](CCCNC(=N)N)C(=O)N[C@@H](CC(N)=O)C(=O)N[C@H](C(=O)N[C@@H](CCCNC(=N)N)C(=O)N[C@@H](CCCCN)C(=O)N[C@@H](Cc1c[nH]c2ccccc12)C(=O)N[C@@H](CCCNC(=N)N)C(N)=O)[C@@H](C)CC [VS1-40, octanoyl FWQRNIRKWR-NH2] (Octanoyl-FWQRNIRKWR-NH2)
4	8	CCCCC(CC)C(=O)N[C@@H](Cc1ccccc1)C(=O)N[C@@H](Cc1c[nH]c2ccccc12)C(=O)N[C@@H](CCC(N)=O)C(=O)N[C@@H](CCCNC(=N)N)C(=O)N[C@@H](CC(N)=O)C(=O)N[C@H](C(=O)N[C@@H](CCCNC(=N)N)C(=O)N[C@@H](CCCCN)C(=O)N[C@@H](Cc1c[nH]c2ccccc12)C(=O)N[C@@H](CCCNC(=N)N)C(N)=O)[C@@H](C)CC (stereo partly drawn) [VS1-41, 2-ethylhexanoyl FWQRNIRKWR-NH2] (X1-FWQRNIRKWR-NH2)
6	16	CCC(C)CCCCC(=O)N[C@@H](Cc1ccccc1)C(=O)N[C@@H](Cc1c[nH]c2ccccc12)C(=O)N[C@@H](CCC(N)=O)C(=O)N[C@@H](CCCNC(=N)N)C(=O)N[C@@H](CC(N)=O)C(=O)N[C@H](C(=O)N[C@@H](CCCNC(=N)N)C(=O)N[C@@H](CCCCN)C(=O)N[C@@H](Cc1c[nH]c2ccccc12)C(=O)N[C@@H](CCCNC(=N)N)C(N)=O)[C@@H](C)CC (stereo partly drawn) [VS1-43, 6-methyloctanoyl FWQRNIRKWR-NH2] ({Octanoyl(6-Me)}-FWQRNIRKWR-NH2)
4	16	CC[C@H](C)[C@H](NC(=O)[C@H](CC(N)=O)NC(=O)[C@H](CCCNC(=N)N)NC(=O)[C@H](CCC(N)=O)NC(=O)[C@H](Cc1c[nH]c2ccccc12)NC(=O)[C@H](Cc1ccccc1)NC(=O)C(C1CCCCC1)C1CCCCC1)C(=O)N[C@@H](CCCNC(=N)N)C(=O)N[C@@H](CCCCN)C(=O)N[C@@H](Cc1c[nH]c2ccccc12)C(=O)N[C@@H](CCCNC(=N)N)C(N)=O [VS1-44, dicyclohexylacetyl FWQRNIRKWR-NH2] (Dicyclohexylacetyl-FWQRNIRKWR-NH2)
2	4	CCCCCCCC(=O)N[C@@H](CCCNC(=N)N)C(=O)N[C@@H](Cc1c[nH]c2ccccc12)C(=O)N[C@@H](CCCCN)C(=O)N[C@@H](CCCNC(=N)N)C(=O)N[C@H](C(=O)N[C@@H](CC(N)=O)C(=O)N[C@@H](CCCNC(=N)N)C(=O)N[C@@H](CCC(N)=O)C(=O)N[C@@H](Cc1c[nH]c2ccccc12)C(=O)N[C@@H](Cc1ccccc1)C(N)=O)[C@@H](C)CC [VS1-45, octanoyl RWKRINRQWF-NH2] (Octanoyl-RWKRINRQWF-NH2)
4	8	CCCCC(CC)C(=O)N[C@@H](CCCNC(=N)N)C(=O)N[C@@H](Cc1c[nH]c2ccccc12)C(=O)N[C@@H](CCCCN)C(=O)N[C@@H](CCCNC(=N)N)C(=O)N[C@H](C(=O)N[C@@H](CC(N)=O)C(=O)N[C@@H](CCCNC(=N)N)C(=O)N[C@@H](CCC(N)=O)C(=O)N[C@@H](Cc1c[nH]c2ccccc12)C(=O)N[C@@H](Cc1ccccc1)C(N)=O)[C@@H](C)CC (stereo partly drawn) [VS1-46, 2-ethylhexanoyl RWKRINRQWF-NH2] (X1-RWKRINRQWF-NH2)
8	16	CC[C@H](C)[C@H](NC(=O)[C@H](CCCNC(=N)N)NC(=O)[C@H](CCCCN)NC(=O)[C@H](Cc1c[nH]c2ccccc12)NC(=O)[C@H](CCCNC(=N)N)NC(=O)C(C)(C)CC)C(=O)N[C@@H](CC(N)=O)C(=O)N[C@@H](CCCNC(=N)N)C(=O)N[C@@H](CCC(N)=O)C(=O)N[C@@H](Cc1c[nH]c2ccccc12)C(=O)N[C@@H](Cc1ccccc1)C(N)=O [VS1-47, 2,2-dimethylbutanoyl RWKRINRQWF-NH2] ({Butanoyl(2,2-Me2)}-RWKRINRQWF-NH2)
2	8	CCC(C)CCCCC(=O)N[C@@H](CCCNC(=N)N)C(=O)N[C@@H](Cc1c[nH]c2ccccc12)C(=O)N[C@@H](CCCCN)C(=O)N[C@@H](CCCNC(=N)N)C(=O)N[C@H](C(=O)N[C@@H](CC(N)=O)C(=O)N[C@@H](CCCNC(=N)N)C(=O)N[C@@H](CCC(N)=O)C(=O)N[C@@H](Cc1c[nH]c2ccccc12)C(=O)N[C@@H](Cc1ccccc1)C(N)=O)[C@@H](C)CC (stereo partly drawn) [VS1-48, 6-methyloctanoyl RWKRINRQWF-NH2] ({Octanoyl(6-Me)}-RWKRINRQWF-NH2)
2	4	CC[C@H](C)[C@H](NC(=O)[C@H](CCCNC(=N)N)NC(=O)[C@H](CCCCN)NC(=O)[C@H](Cc1c[nH]c2ccccc12)NC(=O)[C@H](CCCNC(=N)N)NC(=O)C(C1CCCCC1)C1CCCCC1)C(=O)N[C@@H](CC(N)=O)C(=O)N[C@@H](CCCNC(=N)N)C(=O)N[C@@H](CCC(N)=O)C(=O)N[C@@H](Cc1c[nH]c2ccccc12)C(=O)N[C@@H](Cc1ccccc1)C(N)=O [VS1-49, dicyclohexylacetyl RWKRINRQWF-NH2] (Dicyclohexylacetyl-RWKRINRQWF-NH2)
6	16	CCCCCCCC(=O)N1CCC[C@H]1C(=O)N[C@@H](Cc1ccccc1)C(=O)N[C@@H](Cc1c[nH]c2ccccc12)C(=O)N[C@@H](CCCNC(=N)N)C(=O)N[C@H](C(=O)N[C@@H](CCCNC(=N)N)C(=O)N[C@H](C(=O)N[C@@H](CCCNC(=N)N)C(=O)N[C@@H](CCCNC(=N)N)C(N)=O)[C@@H](C)CC)[C@@H](C)CC [VS1-50, octanoyl PFWRIRIRR-NH2] (Octanoyl-PFWRIRIRR-NH2)
3	8	CCCCC(CC)C(=O)N1CCC[C@H]1C(=O)N[C@@H](Cc1ccccc1)C(=O)N[C@@H](Cc1c[nH]c2ccccc12)C(=O)N[C@@H](CCCNC(=N)N)C(=O)N[C@H](C(=O)N[C@@H](CCCNC(=N)N)C(=O)N[C@H](C(=O)N[C@@H](CCCNC(=N)N)C(=O)N[C@@H](CCCNC(=N)N)C(N)=O)[C@@H](C)CC)[C@@H](C)CC (stereo partly drawn) [VS1-51, 2-ethylhexanoyl PFWRIRIRR-NH2] (X1-PFWRIRIRR-NH2)
3	8	CC[C@H](C)[C@H](NC(=O)[C@H](CCCNC(=N)N)NC(=O)[C@@H](NC(=O)[C@H](CCCNC(=N)N)NC(=O)[C@H](Cc1c[nH]c2ccccc12)NC(=O)[C@H](Cc1ccccc1)NC(=O)[C@@H]1CCCN1C(=O)C(C1CCCCC1)C1CCCCC1)[C@@H](C)CC)C(=O)N[C@@H](CCCNC(=N)N)C(=O)N[C@@H](CCCNC(=N)N)C(N)=O [VS1-54, dicyclohexylacetyl PFWRIRIRR-NH2] (Dicyclohexylacetyl-PFWRIRIRR-NH2)
4	16	CCCCCCCC(=O)N[C@@H](Cc1ccccc1)C(=O)N[C@@H](Cc1c[nH]c2ccccc12)C(=O)N[C@@H](CCCNC(=N)N)C(=O)N[C@H](C(=O)N[C@@H](CCCNC(=N)N)C(=O)N[C@H](C(=O)N[C@@H](CCCNC(=N)N)C(=O)N[C@@H](CCCNC(=N)N)C(N)=O)[C@@H](C)CC)[C@@H](C)CC [VS1-55, octanoyl FWRIRIRR-NH2] (Octanoyl-FWRIRIRR-NH2)
3	16	CCCCC(CC)C(=O)N[C@@H](Cc1ccccc1)C(=O)N[C@@H](Cc1c[nH]c2ccccc12)C(=O)N[C@@H](CCCNC(=N)N)C(=O)N[C@H](C(=O)N[C@@H](CCCNC(=N)N)C(=O)N[C@H](C(=O)N[C@@H](CCCNC(=N)N)C(=O)N[C@@H](CCCNC(=N)N)C(N)=O)[C@@H](C)CC)[C@@H](C)CC (stereo partly drawn) [VS1-56, 2-ethylhexanoyl FWRIRIRR-NH2] (X1-FWRIRIRR-NH2)
